From patent US20140323721A1, “HETEROCYCLIC COMPOUNDS AND USES THEREOF” (INTELLIKINE, LLC, priority 2011, published 2014)
pIC50: −log10 of the molar value.

What follows are compounds tested on MDA-MB-361 (assay: MDA-MB-361 proliferation). Details: Homo sapiens; in vitro IC50, MDA-MB-361 cells.
Type: cell-based
Description: The ability of one or more subject compounds to inhibit tumor cell line proliferation is determined according to standard procedures known in the art. For instance, an in vitro cellular proliferation assay can be performed to measure the metabolic activity of live cells. The assay is performed in a 96 well microtiter plate using Alamar Blue reduction. Human tumor cell lines are obtained from ATCC (e.g., MCF7, U-87 MG, MDA-MB-468, PC-3), grown to confluency in T75 flasks, trypsinized with 0.25% trypsin, washed one time with Tumor Cell Media (DMEM+10% FBS), and plated in 90 ul at 5,000 cells/well in Tumor Cell Media. A compound disclosed herein is diluted in Tumor Cell Media and added in a 10 ul volume. Plates are incubated for 72 hours at 37 C and 5% CO2. A volume of 10 uL of Alamar Blue reagent is added to each well and plates are incubated for 3 hours at 37 C and 5% CO2. Alamar Blue fluoresce is read at 560 Ex/590 Em, and IC50 values are calculated using GraphPad Prism 5.
Cells comprising one or more mutations in PI3Kα, including but not limited to breast cancer cells (e.g., MDA-MB-361 and T47D), and cells comprising one or more mutations in PTEN including but not limited to prostate cancer cells (e.g., PC3), are typically grown in cell growth media such as DMEM supplemented with fetal bovine serum and/or antibiotics, and grown to confluency. Cells are then treated with various concentrations of test compound for about 2 hours and subsequently lysed in cell lysis buffer. Lysates are subjected to SDS-PAGE followed by Western blot analysis to detect downstream signaling markers, including but not limited to pAKT(S473), pAKT(T308), pS6, and p4E-BP1. Degree of proliferation (and proliferation inhibition) can also be measured for cells at various doses of compound of the present invention.

SMILES | pIC50
Nc1nc2cc(-c3ccc4ncc(N5CCOCC5)cc4n3)ccc2o1 [Compound 22] | > 5.00
Nc1nc2cc(-c3ccc4ncc(N5CCOCC5)nc4n3)ccc2o1 [Compound 2, 5-(3-morpholinopyrido[2,3-b]pyrazin-6-yl)benzo[d]oxazol-2-amine] | > 6.00
C[C@H]1COCCN1C1CN(c2cnc3ccc(-c4ccc5oc(N)nc5c4)nc3n2)C1 [Compound 61] | < 5.00
C[C@@H]1CN(c2cnc3ccc(-c4ccc5oc(N)nc5c4)nc3n2)CCN1 [Compound 27] | > 5.00
CC(C)N1CCN(c2cnc3ccc(-c4ccc5oc(N)nc5c4)nc3n2)CC1 [Compound 32] | > 5.00
Nc1nc2cc(-c3ccc4ncc(N5CCN(C(=O)C6(N)CC6)CC5)cc4n3)ccc2o1 [Compound 42] | > 6.00
C[C@@H]1CN(C2CN(c3cnc4ccc(-c5ccc6oc(N)nc6c5)nc4c3)C2)CCN1 [Compound 56] | > 6.00
CC(C)(N)C(=O)N1CCN(c2cnc3ccc(-c4ccc5oc(N)nc5c4)nc3c2)CC1 [Compound 43, 2-amino-1-(4-(6-(2-aminobenzo[d]oxazol-5-yl)-1,5-naphthyridin-3-yl)piperazin-1-yl)-2-methylpropan-1-one] | > 6.00
Nc1nc2cc(-c3ccc4ncc(N5CCC(O)CC5)cc4n3)ccc2o1 [Compound 62] | > 5.00
Nc1nc2cc(-c3ccc4ncc(N5CC(N6CCN(CCO)CC6)C5)nc4n3)ccc2o1 [Compound 46] | > 5.00
CC1(C)CN(C2CN(c3cnc4ccc(-c5ccc6oc(N)nc6c5)nc4n3)C2)CCN1 [Compound 52] | > 6.00
CN1CCN(c2cnc3ccc(-c4ccc5oc(N)nc5c4)nc3c2)CC1 [Compound 24] | > 5.00
Nc1nc2cc(-c3ccc4ncc(N5CC(N6CCN(C7CC7)CC6)C5)nc4n3)ccc2o1 [Compound 69] | > 5.00
CC1(C)CN(C2CN(c3cnc4ccc(-c5ccc6oc(N)nc6c5)nc4c3)C2)CCN1 [Compound 58] | > 6.00
C[C@@H](N)C(=O)N1CCN(c2cnc3ccc(-c4ccc5oc(N)nc5c4)nc3n2)CC1 [Compound 31] | > 5.00
Nc1nc2cc(-c3ccc4ncc(N5CC(N6CCN(CCO)CC6)C5)cc4n3)ccc2o1 [Compound 65] | > 6.00
C[C@@H](N)C(=O)N1CCN(c2cnc3ccc(-c4ccc5oc(N)nc5c4)nc3c2)CC1 [Compound 39] | > 5.00
C[C@@H]1CN(c2cnc3ccc(-c4ccc5oc(N)nc5c4)nc3c2)CCN1 [Compound 48] | > 5.00
NCC(=O)N1CCN(c2cnc3ccc(-c4ccc5oc(N)nc5c4)nc3c2)CC1 [Compound 37] | > 5.00
Nc1nc2cc(-c3ccc4ncc(N5CCN(C(=O)C6(N)CC6)CC5)nc4n3)ccc2o1 [Compound 41] | > 5.00

SMILES | pIC50
Nc1nc2cc(-c3ccc4ncc(N5CC(N6CCN(CC7CC7)CC6)C5)nc4n3)ccc2o1 [Compound 35] | > 5.00
C[C@@H]1CN(C2CN(c3cnc4ccc(-c5ccc6oc(N)nc6c5)nc4n3)C2)CCN1 [Compound 12] | > 5.00
Nc1nc2cc(-c3ccc4ncc(N5CC(N6CCOCC6)C5)nc4n3)ccc2o1 [Compound 5] | > 5.00
NCC(=O)N1CCN(c2cnc3ccc(-c4ccc5oc(N)nc5c4)nc3n2)CC1 [Compound 33] | < 5.00
C[C@H]1CN(C2CN(c3cnc4ccc(-c5ccc6oc(N)nc6c5)nc4c3)C2)CCN1C [Compound 55] | > 6.00
Nc1nc2cc(-c3ccc4ncc(N5CC(N6CCN(CC7CC7)CC6)C5)cc4n3)ccc2o1 [Compound 60] | > 6.00
C[C@H]1CN(C2CN(c3cnc4ccc(-c5ccc6oc(N)nc6c5)nc4n3)C2)CCN1C [Compound 21] | > 5.00
CC(C)(N)C(=O)N1CCN(c2cnc3ccc(-c4ccc5oc(N)nc5c4)nc3n2)CC1 [Compound 40] | > 5.00
C[C@H]1CN(c2cnc3ccc(-c4ccc5oc(N)nc5c4)nc3c2)CCN1 [Compound 47] | > 5.00
CCOC(=O)N1CC=C(c2cnc3ccc(-c4ccc5oc(N)nc5c4)nc3n2)CC1 [Compound 9] | > 6.00
C[C@@H]1COCCN1c1cnc2ccc(-c3ccc4oc(N)nc4c3)nc2n1 [Compound 14] | > 6.00
C[C@@H]1CN(C2CN(c3cnc4ccc(-c5ccc6oc(N)nc6c5)nc4c3)C2)CCN1C [Compound 57] | > 6.00
Nc1nc2cc(-c3ccc4ncc(N5CCC(O)CC5)nc4n3)ccc2o1 [Compound 45] | > 6.00
CN1CCN(C2CN(c3cnc4ccc(-c5ccc6oc(N)nc6c5)nc4n3)C2)CC1 [Compound 71] | > 5.00
Nc1nc2cc(-c3ccc4ncc(N5CCC(F)(F)CC5)nc4n3)ccc2o1 [Compound 13] | > 5.00
C[C@@H]1CN(C2CN(c3cnc4ccc(-c5ccc6oc(N)nc6c5)nc4n3)C2)CCN1C [Compound 25] | > 5.00
C[C@H](N)C(=O)N1CCN(c2cnc3ccc(-c4ccc5oc(N)nc5c4)nc3c2)CC1 [Compound 38] | > 5.00
CCOC(=O)N1CCN(c2cnc3ccc(-c4ccc5oc(N)nc5c4)nc3c2)CC1 [Compound 36] | > 6.00
Cc1nccn1C1CN(c2cnc3ccc(-c4ccc5oc(N)nc5c4)nc3n2)C1 [Compound 50] | > 5.00

Second part, the compound after the results:

pIC50 | SMILES
> 6.00 | CN1CCN(C2CN(c3cnc4ccc(-c5ccc6oc(N)nc6c5)nc4c3)C2)CC1 [Compound 74]
> 5.00 | CN1CC2CN(c3cnc4ccc(-c5ccc6oc(N)nc6c5)nc4n3)CC2C1 (stereo not drawn) [Compound 78]
> 5.00 | CS(=O)(=O)N1CCN(C2CN(c3cnc4ccc(-c5ccc6oc(N)nc6c5)nc4n3)C2)CC1 [Compound 8]
> 5.00 | C[C@H]1CN(C2CN(c3cnc4ccc(-c5ccc6oc(N)nc6c5)nc4n3)C2)CCN1 [Compound 10]
< 5.00 | Nc1nc2cc(-c3ccc4ncc(-c5cccnc5)cc4n3)ccc2o1 [Compound 16]
> 5.00 | CC(C)N1CCN(c2cnc3ccc(-c4ccc5oc(N)nc5c4)nc3c2)CC1 [Compound 44]
> 6.00 | Nc1nc2cc(-c3ccc4ncc(N5CCNC(=O)C5)nc4n3)ccc2o1 [Compound 29]
< 5.00 | Nc1nc2cc(-c3ccc4ncc(N5CC(N6CCNCC6)C5)nc4n3)ccc2o1 [Compound 34]
> 6.00 | CC(C)N1CCN(C2CN(c3cnc4ccc(-c5ccc6oc(N)nc6c5)nc4c3)C2)CC1 [Compound 72, 5-(7-(3-(4-isopropylpiperazin-1-yl)azetidin-1-yl)-1,5-naphthyridin-2-yl)benzo[d]oxazol-2-amine]
> 6.00 | CCOC(=O)N1CCN(c2cnc3ccc(-c4ccc5oc(N)nc5c4)nc3n2)CC1 [Compound 6]
> 6.00 | CCN1CCN(C2CN(c3cnc4ccc(-c5ccc6oc(N)nc6c5)nc4c3)C2)CC1 [Compound 75]
> 5.00 | C[C@H]1COCCN1C1CN(c2cnc3ccc(-c4ccc5oc(N)nc5c4)nc3c2)C1 [Compound 68]
> 6.00 | C[C@H]1COCCN1c1cnc2ccc(-c3ccc4oc(N)nc4c3)nc2n1 [Compound 15]
> 5.00 | Cc1nccn1C1CN(c2cnc3ccc(-c4ccc5oc(N)nc5c4)nc3c2)C1 [Compound 63]
> 6.00 | C[C@H]1CN(C2CN(c3cnc4ccc(-c5ccc6oc(N)nc6c5)nc4c3)C2)CCN1 [Compound 54]
> 5.00 | CN1CCN(c2cnc3ccc(-c4ccc5oc(N)nc5c4)nc3n2)CC1 [Compound 4]
> 5.00 | C[C@@H]1COCCN1C1CN(c2cnc3ccc(-c4ccc5oc(N)nc5c4)nc3c2)C1 [Compound 66]
> 5.00 | C[C@H]1CN(c2cnc3ccc(-c4ccc5oc(N)nc5c4)nc3n2)CCN1 [Compound 1]
